The subject of one data set is GDX males. The data set can be described thus: Examples 5 and 6: gonadectomized (GDX) male rats treated with DHTP, equol or both; histology. Format: in vivo, rat. As for the experimental part:
One week following arrival, animals are gonadectomized (GDX) under isoflurane anesthesia and allowed to recover for 7 days. Following recovery, animals are assigned to the following groups 1) DMSO, 2) DHTP (2 mg/1 kg), 3) racemic equol (0.25 mg/kg), or 4) both DHTP and racemic equol. Injections are given subcutaneously daily for 4 days. Animals are killed via decapitation and trunk blood and tissues are collected for analysis.
Tissues, including prostate, testes and epididymis, are removed from the animal, dissected free of fat and connective tissues, weighed, fixed by immersion in 4% paraformaldehyde, and then sectioned at 15 μm on a cryostat. Tissue sections are mounted on charged slides (Superfrost Plus, Fisher Scientific, Pittsburgh, Pa.) prewarmed to 23° C., and stained with hematoxylin and eosin (H&E), dehydrated in ascending alcohol and cleared with xylene.

For data set [1], the system named is Adult male Sprague-Dawley rats. The data set can be described thus: Example 3: prostate, epididymis and body weight gain in male rats treated with racemic, R- or S-equol. Format: in vivo, rat. The note with it: 0.25 mg/kg/day sc, seven days. As for the experimental part: Adult male Sprague-Dawley rats are randomly assigned to […] groups and receive daily injections of either DMSO, a racemic mixture of equol at 0.250 mg/kg/day), R-equol at 0.250 mg/kg/day, or S-equol at 0.250 mg/kg/day. The total volume of each injection is 0.3 cc, administered sc at the nape of the rat's neck. After seven consecutive days of treatment, the rats are killed and the body weight gain during the injection period is determined.

In the next data set the target is T1, ERβ (Rattus norvegicus, UniProt Q62986).
T1 construct: Full length rat ERα expression vector (pcDNA-ERα; RH Price UCSF) and ERβ expression vector (pcDNA-ERβ; T A Brown, Pfizer; made in house; host or cells: TnT-coupled rabbit reticulocyte lysate in vitro translation (Promega)
T1 sequence (Q62986 whole entry): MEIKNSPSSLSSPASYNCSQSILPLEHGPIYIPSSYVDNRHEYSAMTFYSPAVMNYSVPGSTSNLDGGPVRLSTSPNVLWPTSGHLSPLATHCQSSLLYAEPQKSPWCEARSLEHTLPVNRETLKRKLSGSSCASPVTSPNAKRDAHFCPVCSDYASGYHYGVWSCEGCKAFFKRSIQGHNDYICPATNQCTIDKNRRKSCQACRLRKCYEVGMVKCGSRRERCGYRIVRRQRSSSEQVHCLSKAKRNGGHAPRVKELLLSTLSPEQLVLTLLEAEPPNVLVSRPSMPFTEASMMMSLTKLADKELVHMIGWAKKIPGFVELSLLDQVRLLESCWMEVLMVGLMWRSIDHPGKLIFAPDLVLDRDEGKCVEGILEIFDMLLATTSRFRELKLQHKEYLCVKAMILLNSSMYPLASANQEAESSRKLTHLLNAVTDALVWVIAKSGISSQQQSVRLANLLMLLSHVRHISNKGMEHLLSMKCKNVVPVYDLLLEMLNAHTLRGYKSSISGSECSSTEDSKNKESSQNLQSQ
The data set can be described thus: Competition binding of equol enantiomers with [3H]E2 for in vitro translated ERβ. How it is done:
(§1) In vitro binding studies were performed to examine the relative affinities of S— and R-enantiomeric equol with the estrogen receptors ERα and ERβ.
(§2) Synthesis of Hormone Receptor Proteins: Full length rat ERα expression vector (pcDNA-ERα; RH Price UCSF) and ERβ expression vector (pcDNA-ERβ; T A Brown, Pfizer, Groton, […].) were used to synthesize hormone receptors in vitro using the TnT-coupled reticulocyte lysate system (Promega, Madison, Wis.) with T7-RNA polymerase, during a 90 min reaction at 30° C. Translation reaction mixtures were stored at −80° C. until further use.
(§3) Saturation isotherms: In order to calculate and establish the binding affinity of the S-equol and R-equol enantiomers for ERα and ERβ, 100 μL aliquots of reticulocyte lysate supernatant were incubated at optimal time and temperature; 90 min at room temperature (ERβ) and 18 hrs at 4° C. (ERα), with increasing (0.01-100 nm) concentrations of [3H] […] These times were determined empirically and represent optimal binding of receptor with estrogen. Nonspecific binding was assessed using a 300-fold excess of the ER agonist diethylstilbestrol, in parallel tubes. Following incubation, bound and unbound [3H]E2 were separated by passing the incubation reaction through a 1 mL lipophilic Sephadex LH-20 (Sigma-Aldrich Co., Saint Louis, Mo.) column Columns were constructed by packing a disposable pipette tip (1 mL; Labcraft, Curtin Matheson Scientific, Inc, Houston, Tex.) with TEGMD (10 mm Tris-Cl, 1.5 mm EDTA, 10% glycerol, 25 mm molybdate, and 1 mm dithiothreitol, pH 7.4)-saturated Sephadex according to previously published protocols (Wanda et al., 1986; O'Keefe and Handa, 1990). For chromatography, the columns were re-equilibrated with TEGMD (100 μL), and the incubation reactions were added individually to each column and allowed to incubate on the column for an additional 30 min. Following this incubation, 600 μL of TEGMD were added to each column, flow-through was collected, 4 mL scintillation fluid was added, and samples were counted (5 min each) in an 2900 TR Packard scintillation counter (Packard Bioscience, Meriden, Conn.).
(§4) Competition binding studies were used to assess the estrogenic properties of equol's S-equol and R-equol enantiomers. Based on the ability of S and R to compete with [3H]

The next data set addresses T2, AR (Rattus norvegicus, UniProt P15207).
T2 construct: incubated with prostate supernatant and then passed through the 30 cm column; from tissue; host or cells: prostate supernatant
T2 sequence (P15207 1-902): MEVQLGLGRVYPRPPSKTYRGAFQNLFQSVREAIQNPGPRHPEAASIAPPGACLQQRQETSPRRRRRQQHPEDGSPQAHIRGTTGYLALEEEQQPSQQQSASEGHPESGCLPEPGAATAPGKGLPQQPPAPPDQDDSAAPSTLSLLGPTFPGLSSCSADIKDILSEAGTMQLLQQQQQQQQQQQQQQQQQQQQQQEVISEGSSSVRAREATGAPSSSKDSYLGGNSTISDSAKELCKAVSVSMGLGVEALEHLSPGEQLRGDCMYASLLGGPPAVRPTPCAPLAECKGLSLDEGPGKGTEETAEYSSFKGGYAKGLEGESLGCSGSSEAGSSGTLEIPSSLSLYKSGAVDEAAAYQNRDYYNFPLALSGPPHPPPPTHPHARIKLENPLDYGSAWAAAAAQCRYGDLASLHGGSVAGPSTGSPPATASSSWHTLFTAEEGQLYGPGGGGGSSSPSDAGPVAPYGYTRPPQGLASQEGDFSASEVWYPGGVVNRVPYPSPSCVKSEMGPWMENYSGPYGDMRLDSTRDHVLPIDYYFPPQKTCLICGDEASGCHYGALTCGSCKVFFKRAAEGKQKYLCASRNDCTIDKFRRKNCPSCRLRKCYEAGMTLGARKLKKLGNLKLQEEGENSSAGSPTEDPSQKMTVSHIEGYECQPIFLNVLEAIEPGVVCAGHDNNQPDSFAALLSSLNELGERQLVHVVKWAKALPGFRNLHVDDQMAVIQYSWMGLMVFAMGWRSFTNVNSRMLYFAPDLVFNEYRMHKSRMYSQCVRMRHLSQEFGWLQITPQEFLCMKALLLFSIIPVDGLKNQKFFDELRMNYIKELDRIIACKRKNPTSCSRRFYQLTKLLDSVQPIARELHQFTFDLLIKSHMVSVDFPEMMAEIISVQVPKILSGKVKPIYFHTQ
The data set can be described thus: Binding to the androgen receptor (prostate supernatant, [3H]DHT).

The test system of data set [2] is Adult male Sprague-Dawley rats. The data set can be described thus: Example 15: elevated plus maze of equol injected male rats. It is filed as in vivo, rat. The note with it: 0.250 mg/Kg/day sc, seven days, n = 8. The source says:
The elevated plus maze is a behavioral test used to quantify anxiety-related behavior and identify anxiolytic drugs (Pellow S. et al., J Neurosci Methods, 14:149-147 (1985); Current Protocols In Neuroscience (1997) 8.3.1-8.3.15, John Wiley & Sons. NY, N.Y.). The test relies on the inherent conflict between exploration of a novel environment and avoidance of its aversive features. Normally, animals spend little time and make few entries into the open arms of the maze compared to the closed arms of the maze (Imhof J. T. et al., Behav Brain Res, 56:177-180 (1993). However, animals treated with anxiolytics, such as benzodiazepines (valium), spend more time in the open arms and the number of entries into the open arms reflects a decrease in anxiety-related behaviors (Pellow S. et al., J Neurosci Methods, 14:149-147 (1985); Current Protocols In Neuroscience (1997) 8.3.1-8.3.15, John Wiley & Sons. NY, N.Y.; Chopin P. et al., Psychopharm, 110:409-414 (1993).
Adult male Sprague-Dawley rats receive daily injections of either DMSO, racemic equol (0.250 mg/Kg/day), R-equol (0.250 mg/Kg/day), or S-equol (0.250 mg/Kg/day) in a total volume of 0.3 cc DMSO by subcutaneous injection. At the end of seven consecutive days of treatment the animals are tested in the elevated plus maze in order to quantify anxiety-related behaviors.

Another data set has as its target T3, ERα (Rattus norvegicus, UniProt P06211).
T3 construct: Full length rat ERα expression vector (pcDNA-ERα; RH Price UCSF); made in house; host or cells: TnT-coupled rabbit reticulocyte lysate in vitro translation (Promega)
T3 sequence (P06211 1-600): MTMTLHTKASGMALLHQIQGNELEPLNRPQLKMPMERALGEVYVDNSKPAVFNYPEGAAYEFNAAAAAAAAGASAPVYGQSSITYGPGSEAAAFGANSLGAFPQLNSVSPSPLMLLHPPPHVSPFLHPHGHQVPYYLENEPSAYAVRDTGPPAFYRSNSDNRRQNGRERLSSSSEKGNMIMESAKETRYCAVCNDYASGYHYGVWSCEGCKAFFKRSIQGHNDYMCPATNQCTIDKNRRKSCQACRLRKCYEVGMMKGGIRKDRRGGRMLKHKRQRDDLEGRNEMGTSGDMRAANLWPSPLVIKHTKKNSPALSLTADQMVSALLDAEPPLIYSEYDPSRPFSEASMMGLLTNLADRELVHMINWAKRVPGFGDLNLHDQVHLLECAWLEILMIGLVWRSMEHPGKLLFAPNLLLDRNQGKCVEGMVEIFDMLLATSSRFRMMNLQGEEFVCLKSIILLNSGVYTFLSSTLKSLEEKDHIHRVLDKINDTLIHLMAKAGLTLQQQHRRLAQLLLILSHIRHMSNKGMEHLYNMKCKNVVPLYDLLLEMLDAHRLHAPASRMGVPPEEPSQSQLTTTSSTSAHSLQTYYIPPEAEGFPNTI
The data set can be described thus: Competition binding of equol enantiomers with [3H]E2 for in vitro translated ERα. How it is done:
as §1, §2, §3, §4

Data set [3] relates to Long-Evans rats, male offspring. The data set can be described thus: Example 19: elevated plus maze of adult male offspring after pre- and early postnatal treatment. It is filed as in vivo, rat. How it is done:
Pregnant Long-Evans rats were treated via daily subcutaneous injections from gestational day 14 through 20 and during lactation from postnatal day 2 through 25 with: 1) control-DMSO vehicle or, 2) genistein@ 3 mg/day or 3) equol@ 3 mg/day according to the treatment groups. All animals were fed a phytoestrogen-low diet throughout these studies (10 ppm isoflavones). There were no significant differences in maternal body weights just before birth among the treatment groups. […] The maternal and male offspring genistein and equol levels @ 25 days post birth) paralleled that of the treatments administered.
At approximately 90 days of age the male offspring were tested by treatments (control, genistein and equol) in the EPM that was video-taped for 3 minutes and later recorded for the number of entries into—and the percentage of total time spent—on the open arms, as previously described. […] Equol time intervals were 2-fold greater than genistein values and genistein levels were approximately 9-fold greater than controls.

[4] abbreviates: competition with [3H]E2, in vitro translated ER.
[5] abbreviates: 3 mg/day sc to dams, offspring tested at about 90 days.

Where “and” joins values, the source holds several entries; their conditions need not be identical. Identical values can stand only once.

`CCC(=O)O[C@H]1CC[C@H]2[C@@H]3CC[C@H]4CC(=O)CC[C@]4(C)[C@H]3CC[C@]12C` [DHTP, DHT propionate, reference compound]: the LH entry with GDX males (GDX males, given alone, vs DMSO) is recorded as “significantly decreased”. For the same molecule, in the data set on GDX males (GDX males, given alone, vs vehicle-treated GDX), the prostate weight result is reported as “significant increase”. Also, the “plasma 5α-DHT” value in the data set with GDX males (GDX, DHTP 2 mg/kg sc daily for 4 days) is given as “significant elevations”.
Turning to `Oc1ccc([C@H]2COc3cc(O)ccc3C2)cc1` [S-equol], in data set [1], the “Body Wt Gain (g)” value is 56.1 (±3.1) g, the “Epididymis (g)” value is reported as 0.86 (±0.05) g and the “Prostate (g)” value is 0.35 (±0.03) g. Moreover, on ERβ, the “affinity for ERβ, fold less” value is listed as “approximately 5 fold” and the “binding to ERβ relative to that of 17β-estradiol” value is on record as “approximately 20%”. The molecule further gave a Kd on ERβ (as stated in the background section) of 0.7 nM. On ERβ (setting [4]), this molecule came in with a Kd of 0.73 ± 0.2 nM. For the same molecule, the “binding to the androgen receptor” value on AR is reported as “does not bind the androgen receptor”. Further, in data set [2], the “Center Area” value was 27.5 ± 4.1 s and the “Open Arm Time” value was found to be 33.6 ± 7.0 s. Further, the “relative binding affinity for ERα compared with 17β-estradiol, fold less” value at ERα is 49.2 fold and 49 fold. On ERα (setting [4]), binding was put at a Kd of 6.41 ± 1.01 nM.
Take `O=c1c(-c2ccc(O)cc2)coc2cc(O)cc(O)c12` [genistein]: in data set [3] (3 mg/day sc to dams from gestational day 14), the “body weights at birth vs controls” value is “slightly (but not significantly) higher”. In addition, in data set [3] (setting [5]), the “entries into the open arms vs controls” value was “not significantly different” and the “time in the open arms vs controls” value was “significantly greater”. The “open arm time intervals, fold greater than controls” value in data set [3] (offspring tested at about 90 days) was “approximately 9 fold”.

These data come from US20070043108A1, “Use of equol for ameliorating or preventing neuropsychiatric and neurodegenerative diseases or disorders” (priority 2002, published 2007).
